# From patent US8394788B2, “Phenylsulfoxyoxazole compound inhibitors of urea transporters” (The Regents of the University of California, priority 2006, dated 2013)
# Experiments:
# [1] = system: UT; details: cited from earlier work
# [2] = system: RBCs from wild-type mice; test: Osmotic water permeability, RBCs from wild-type mice (stopped-flow); assay type: cell-based, mouse
# Procedure: RBC urea and water permeabilities were assayed by stopped-flow light scattering using a Hi-Tech Sf-51 instrument (Wiltshire, UK). For measurement of urea permeability, dilutions of whole blood (human or mouse; see Example 1) in PBS (hematocrit: approximately 0.5%) were incubated with test compounds for 5 min and then subjected to a 250-mM inwardly directed gradient of urea. After an initial osmotic shrinking phase, the kinetics of increasing cell volume caused by urea influx were measured as the time-course of 90° scattered light intensity at 530 nm, with increasing cell volume resulting in reduced scattered light intensity. As a positive control, 0.7 mM phloretin was added to the RBC suspension prior to stopped-flow experiments. Measurements of water permeability were carried out similarly, with sucrose (cell-impermeant) used instead of urea to establish a 250-mM osmotic gradient. As a positive control, HgCl2 (0.3 mM) was added to the RBC suspension prior to stopped-flow measurements. Osmotic water permeability coefficients (Pf) were computed from light scattering data as described (van Hoek et al., J Biol. Chem. 267:18267-69 (1992)).
# This example describes chemical knock-out of UT-B by UT-B inhibitors in RBCs and the effect on UT-B-facilitated water transport. […] Osmotic water permeability was measured by stopped-flow light scattering in RBCs from wild-type and AQP1-null mice as shown in FIG. 8A. […] AQP1-null RBCs had greater than 5-fold reduced Pf compared to wild-type RBCs.
# [3] = molecular target: T1, rat UT-A1 (Rattus norvegicus, UniProt Q62668); test: UT-A1-facilitated urea flux across MDCK-UT-A1 cell layers; assay type: cell-based; details: forskolin 10 μM; phloretin 0.7 mM
# T1 sequence (Q62668 1-929): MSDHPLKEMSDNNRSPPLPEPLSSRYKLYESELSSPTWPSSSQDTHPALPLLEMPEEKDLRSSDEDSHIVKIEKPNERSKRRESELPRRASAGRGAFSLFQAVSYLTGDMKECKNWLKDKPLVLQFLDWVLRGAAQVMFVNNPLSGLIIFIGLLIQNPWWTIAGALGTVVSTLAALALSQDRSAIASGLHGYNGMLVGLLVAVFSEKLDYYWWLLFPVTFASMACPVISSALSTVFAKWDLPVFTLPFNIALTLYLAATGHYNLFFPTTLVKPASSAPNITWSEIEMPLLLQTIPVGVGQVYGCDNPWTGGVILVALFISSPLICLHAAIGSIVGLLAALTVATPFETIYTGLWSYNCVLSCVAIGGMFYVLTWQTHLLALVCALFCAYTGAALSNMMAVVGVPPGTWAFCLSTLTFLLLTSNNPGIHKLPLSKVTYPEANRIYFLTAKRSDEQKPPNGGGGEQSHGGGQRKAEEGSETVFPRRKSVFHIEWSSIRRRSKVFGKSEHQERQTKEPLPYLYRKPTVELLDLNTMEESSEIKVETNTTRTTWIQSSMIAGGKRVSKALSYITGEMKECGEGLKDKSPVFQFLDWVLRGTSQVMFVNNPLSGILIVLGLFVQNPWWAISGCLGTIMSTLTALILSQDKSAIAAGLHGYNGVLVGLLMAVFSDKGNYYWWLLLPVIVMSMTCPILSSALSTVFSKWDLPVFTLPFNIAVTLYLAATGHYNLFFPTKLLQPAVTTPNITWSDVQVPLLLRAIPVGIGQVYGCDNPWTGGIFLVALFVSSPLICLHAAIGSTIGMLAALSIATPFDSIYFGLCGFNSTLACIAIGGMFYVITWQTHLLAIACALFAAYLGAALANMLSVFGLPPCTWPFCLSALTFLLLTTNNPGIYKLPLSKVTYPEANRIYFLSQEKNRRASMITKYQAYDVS
# Procedure: Concentration-inhibition studies were performed to study the effect of the active mouse UT-B inhibitors on urea transport by UT-A. The amino acid sequences of UT-B and UT-A urea transporter isoforms share significant similarity. The cells used in these studies were MDCK cells that expressed rat UT-A1. MDCK-UT-A1-expressing cells were grown on collagen-coated porous filters until they were electrically tight, at which point 15 mM urea was introduced into buffer bathing the basolateral cell surface. […]
# UT-A1-facilitated urea flux in the basolateral-to-apical direction across unstimulated and forskolin-stimulated MDCK-UT-A1 cell layers was measured in response to a 15-mM urea gradient. […] Five μL samples of apical fluid were collected at specified times during incubation at 37° C., and urea concentration was determined using a commercial kit based on chromogenic urea complexation at 520-nm wavelength (Quantichrom™ Urea Assay Kit, BioAssay Systems, Hayward, Calif.). […] Aforsk, and Aphlor were averaged absorbance values (at 520 nm) for cultures treated with forskolin and forskolin+phloretin, respectively, and Atest were values from cultures treated with forskolin+test compound.
structure (smiles),measurement,setting,value
"O=C(CCc1ccc(O)cc1)c1c(O)cc(O)cc1O [phloretin, reference compound]",concentration exhibiting activity as UT inhibitor,[1],> 0.5 mM
same,reduction in Pf,"[2]; 0.7 mM, wild-type mouse RBCs",small but significant reduction
same,effect on water transport in RBCs from wild-type mice,"[2]; 10° C., 250-mM sucrose gradient",little effect
same,effect on UT-A1-facilitated urea transport,[3],inhibited
